Reference: ChEMBL document CHEMBL1156452, “Minocycline down-regulates MHC II expression in microglia and macrophages through inhibition of IRF-1 and protein kinase C (PKC)alpha/betaII” (J Biol Chem, 2007)
Values belong to the compound of their own block, whether it stands above or below them. Active and inactive are the calls of the source. The calls are words filed in the database; no cut-off is given here.

Assays:
[1] = Decrease in IFN-gamma-induced MHC2 protein levels in Sprague-Dawley rat primary microglial cells at 1.3 uM by Western blotting; assay type: functional, Microglia; design: scale not given: the % may be the effect or the level left
[2] = organism: Rattus norvegicus; assay: Suppression of IFN-gamma-induced PKCalpha/beta2 nuclear translocation in Sprague-Dawley rat primary microglial cells at 1.3 uM by Western blotting
[3] = molecular target: T1, Interferon regulatory factor 1 (Rattus norvegicus) (UniProt P23570); assay: Suppression of IFN-gamma-induced IFN-gamma regulatory factor 1 nuclear translocation in Sprague-Dawley rat primary microglial cells at 1.3 uM by Western blotting
T1 sequence (whole entry): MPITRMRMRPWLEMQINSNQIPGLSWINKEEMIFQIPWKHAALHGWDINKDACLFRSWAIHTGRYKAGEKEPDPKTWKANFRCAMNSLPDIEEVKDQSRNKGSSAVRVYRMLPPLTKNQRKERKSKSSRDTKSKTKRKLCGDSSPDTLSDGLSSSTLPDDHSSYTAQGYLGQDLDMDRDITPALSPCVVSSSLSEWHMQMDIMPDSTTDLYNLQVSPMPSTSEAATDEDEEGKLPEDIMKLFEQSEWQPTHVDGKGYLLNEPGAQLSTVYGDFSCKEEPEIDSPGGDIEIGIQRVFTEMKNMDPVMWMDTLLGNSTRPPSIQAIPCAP

[4] = tested on: Microglia; assay: Inhibition of IFN-gamma-induced IFN-gamma regulatory factor levels in Sprague-Dawley rat primary microglial cells by Western blotting; assay type: functional, cell-based
[5] = Decrease in IFN-gamma-induced MHC2 expression in Sprague-Dawley rat primary microglial cells at 1.3 uM; assay type: cell-based; design: scale not given: the % may be the effect or the level left; conditions: Microglia
[6] = molecular target: Protein kinase C beta type (Homo sapiens, UniProt P05771); assay: Inhibition of PKCbeta1
Protein kinase C beta type, sequence (P05771 whole entry): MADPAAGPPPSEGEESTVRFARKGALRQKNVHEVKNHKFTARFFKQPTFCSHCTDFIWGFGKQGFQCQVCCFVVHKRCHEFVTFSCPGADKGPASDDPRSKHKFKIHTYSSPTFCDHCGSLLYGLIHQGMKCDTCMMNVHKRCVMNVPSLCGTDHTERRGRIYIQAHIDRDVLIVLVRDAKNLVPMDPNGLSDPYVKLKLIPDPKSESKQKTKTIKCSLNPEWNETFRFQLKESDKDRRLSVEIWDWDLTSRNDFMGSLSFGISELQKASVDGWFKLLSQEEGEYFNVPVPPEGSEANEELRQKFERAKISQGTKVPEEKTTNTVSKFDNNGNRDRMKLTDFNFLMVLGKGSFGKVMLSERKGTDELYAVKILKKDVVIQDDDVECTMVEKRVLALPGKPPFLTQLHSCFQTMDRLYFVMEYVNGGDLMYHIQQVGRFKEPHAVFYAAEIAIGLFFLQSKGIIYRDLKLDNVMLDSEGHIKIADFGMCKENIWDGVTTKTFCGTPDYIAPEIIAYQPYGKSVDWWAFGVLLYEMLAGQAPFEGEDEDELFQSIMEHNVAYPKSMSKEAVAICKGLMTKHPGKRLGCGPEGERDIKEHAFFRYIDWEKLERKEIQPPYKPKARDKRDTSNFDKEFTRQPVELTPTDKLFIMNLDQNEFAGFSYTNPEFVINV

[7] = molecular target: Protein kinase C alpha type (Homo sapiens, UniProt P17252); assay: Inhibition of PKCalpha
[8] = tested on: Macrophage; assay: Inhibition of MHC2 expression in Sprague-Dawley rat peritoneal macrophages at 1.3 uM after 24 hrs by immunostaining; assay type: functional, cell-based
[9] = Decrease in IFN-gamma-induced CIITA mRNA expression in Sprague-Dawley rat primary microglial cells at 100 uM after 24 hrs by RT-PCR; assay type: functional, cell-based; conditions: Microglia
[10] = Decrease in IFN-gamma-induced MHC2 protein levels in Sprague-Dawley rat primary microglial cells at 100 uM by Western blotting; assay type: functional, Microglia; design: scale not given: the % may be the effect or the level left
[11] = molecular target: T1, Interferon regulatory factor 1 (Rattus norvegicus); assay: Suppression of IFN-gamma-induced IFN-gamma regulatory factor 1 nuclear translocation in Sprague-Dawley rat primary microglial cells at 100 uM by Western blotting
[12] = Decrease in IFN-gamma-induced MHC2 mRNA levels in Sprague-Dawley rat primary microglial cells at 100 uM after 24 hrs by RT-PCR; assay type: functional, Microglia; design: scale not given: the % may be the effect or the level left
[13] = tested on: Rattus norvegicus; assay: Decrease in accumulation of CD11b+ cells in spinal cord of dark agouti rat experimental allergic encephalomyelitis model at 45 mg/kg, ip administered twice a day at the first day of clinical signs and once a day for 14 days by immunostaining; assay type: functional; design: scale not given: the % may be the effect or the level left; conditions: route intraperitoneal
[14] = tested on: Rattus norvegicus; assay: Decrease in accumulation of MHC 2+ cells in spinal cord of dark agouti rat experimental allergic encephalomyelitis model at 45 mg/kg, ip administered twice a day at the first day of clinical signs and once a day for 14 days by immunostaining; assay type: functional; design: scale not given: the % may be the effect or the level left; conditions: route intraperitoneal
[15] = tested on: Rattus norvegicus; assay: Decrease in number of MOG-induced inflammatory lesions in spinal cord of dark agouti rat experimental allergic encephalomyelitis model at 45 mg/kg, ip administered twice a day at the first day of clinical signs and once a day for 14 days by hematoxylin and eosin staining; assay type: functional, organism-based; design: dose 45 mg/kg
[16] = organism: Rattus norvegicus; assay: Suppression of IFN-gamma-induced PKCalpha/beta2 nuclear translocation in Sprague-Dawley rat primary microglial cells at 100 uM by Western blotting
[17] = molecular target: Protein kinase C alpha type (Rattus norvegicus) (UniProt P05696); assay: Decrease in PKCalpha phosphorylation in Sprague-Dawley rat peritoneal macrophages at 100 uM after 24 hrs
[18] = tested on: Macrophage; assay: Inhibition of MHC2 expression in Sprague-Dawley rat peritoneal macrophages at 100 uM after 24 hrs by immunostaining; assay type: functional, cell-based
[19] = organism: Rattus norvegicus; assay: Reduction in IFN-gamma-induced PKCalpha/beta2 phosphorylation in Sprague-Dawley rat primary microglial cells at 100 uM by Western blotting
[20] = Decrease in IFN-gamma-induced MHC2 expression in Sprague-Dawley rat primary microglial cells at 100 uM; assay type: functional, cell-based; design: scale not given: the % may be the effect or the level left; conditions: Microglia
[21] = tested on: Rattus norvegicus; assay: Decrease in size of MOG-induced inflammatory lesions in spinal cord of dark agouti rat experimental allergic encephalomyelitis model at 45 mg/kg, ip administered twice a day at the first day of clinical signs and once a day for 14 days by hematoxylin and eosin staining; assay type: functional, organism-based; design: dose 45 mg/kg

Structure (SMILES): Cn1c2ccccc2c2c3c(c4c5ccccc5n(CCC#N)c4c21)CNC3=O [GO-6976]
Activity [1]: 80%
Activity [2]: Active
Activity [3]: Active
Activity [4]: Active
Activity [5]: 55%
IC50 [6]: 6.2 nM
IC50 [7]: 2.3 nM
Activity [8]: Active

Activity [11]: Active
Activity [16]: Active
Activity [17]: Active
Activity [19]: Active
Structure (SMILES): CN(C)c1ccc(O)c2c1C[C@H]1C[C@H]3[C@H](N(C)C)C(O)=C(C(N)=O)C(=O)[C@@]3(O)C(O)=C1C2=O [MINOCYCLINE]
Activity [9]: Active
Activity [10]: 47%
Activity [12]: 45%
Activity [13]: 24%
Activity [14]: 42%
Activity [15]: Active
Activity [18]: Active
Activity [20]: 55%
Activity [21]: Active
